Results from patent publication US12295972B2, “Methods using freeze-dried platelet derivative compositions for restoring hemostasis in a subject” (Cellphire, Inc., priority 2021, dated 2025).
“Also recorded” adds a separate entry of the source. Where a SMILES comes first, the peptide text is derived from it. Bridges are numbered along the chain shown (N, C = ends). [ ]: non-standard residue; d: D form. hArg = N=C(N)NCCCC[C@H](N)C(=O)O; Mpa = O=C(O)CCS

Assays:
pooled normal plasma = assay: Activated clotting time (ACT) in pooled normal plasma with heparin and protamine; type: biochemical, human; details: heparin titration
Method: This experiment assessed how clinical proportions of Heparin and Protamine affect FDPD function. FDPDs were prepared according to the procedure in Example 15. An Activating Clotting Time (ACT) assay was performed to measure time to clot and TGA was performed to measure thrombin generation. An initial Heparin titration run was performed using ACT to find the minimum Heparin dose needed to reach abnormal clot time.
Activated clotting time was measured using pooled normal plasma with heparin (H) and protamine (P) as labeled on the x-axis; ½ P, P, and 3/2 P represent protamine doses of 4, 8, and 12 μg/ml, respectively. FDPDs, (referred to as “Tsomes” in FIG. 40) were added at 10, 25 or 50 K/μl. […] “K” in the legend stands for 10^3 FDPDS. All samples were run in duplicate. N=2. The experiment was repeated on separate days to improve statistical relevance.

[1] = system: platelets in platelet-rich plasma (PRP); assay: Transmission light aggregometry of platelets in PRP with antiplatelet agents; type: cell-based, human
Method: Plasma samples with platelet or FDPDs or combination of both are loaded into cuvettes and placed into the aggregometry chambers. The chambers warm the sample and provide constant stirring. The initiation of aggregation can be done by multiple types of […] agents not limited to thrombin, ADP, collagen and any agent know to stimulate platelet aggregation. […] The instrument begins the assay by first recording the light transmission previous to stimulation for 2 minutes. The stimulant of interest is then introduced by the technician and the change in light transmission is recorded overtime. The increase in light transmission corresponds to increase in platelet aggregation.

platelet rich plasma [2] = assay: T-TAS AR chip (collagen and tissue factor) occlusion, platelet rich plasma; type: cell-based, human
platelet function = details: in vivo; cited from earlier work
platelet rich plasma [3] = assay: T-TAS AR chip (collagen and tissue factor) occlusion, platelet rich plasma; type: cell-based, human; details: for occlusion time of ADP stimulated PRP: ADP 2 μM, cangrelor 1 μM (n=4) or ticagrelor 500 ng/mL (n=5)
Method: The effect of cangrelor on platelet occlusion under shear was evaluated by T-TAS®.
Evaluation by T-TAS® using an AR chip. AR chips are characterized by a single channel containing collagen and tissue factor; they can be used to analyze clotting and platelet function.

whole blood [4] = assay: T-TAS PL chip (collagen only) thrombus formation, whole blood; type: cell-based, human; details: 100 and 500 μM aspirin
Text: Platelets will aggregate with collagen and arachidonic acid stimulation. […] The PL chip system on the T-TAS® was used to emulate in vitro platelet binding and aggregation due to the exposure of collagen in the vasculature under shear conditions.
PL chips are run similarly to AR chips but this chip is only coated with collagen alone.

thrombin generation = assay: Thrombin generation assay (TGA); type: biochemical, human; details: PPP from patients taking baby aspirin daily; absence of FDPDs
[5] = same 500 mg dose orally; cited from earlier work
whole blood [6] = assay: T-TAS AR chip occlusion, whole blood; type: cell-based, human; details: 6 μM eptifibatide
Text: The effect of FDPDs on shortening clotting times while in the presence of eptifibatide was also studied. The ability of FDPDs to recover occlusion times was studied on the T-TAS® system. The T-TAS® system measures occlusion time under shear forces with collagen and thromboplastin stimulation. The whole blood profile of occlusion and AUC on the AR T-TAS® chip lengthened and decreased, respectively, with eptifibatide. Eptifibatide extended the occlusion time of whole blood on the T-TAS® AR Chip in a dose-dependent manner. In this experiment, whole blood occluded at 8 minutes, and the occlusion time was extended to 16 minutes with 6 μM eptifibatide (FIG. 9). FDPDs reversed the inhibitory effect of eptifibatide on thrombus formation. Eptifibatide inhibition of whole blood occlusion on the T-TAS® AR Chip was reversed by the addition of FDPDs at approximately 200,000/μL (N=3). When FDPDs (approximately 200 k/μL) were added to the sample of whole blood inhibited with eptifibatide, the time to occlusion decreased to ‘normal’ at 9 minutes (FIG. 10).
Evaluation by T-TAS® using an AR chip. […]
Occlusion time was measured on the Total […] formation Analysis System (T-TAS®) 01 using AR chips (Collagen and Tissue FactorF stimulant). […] FDPDS were rehydrated, counted (Beckman Coulter AcT Diff 2 Cell Counter), and added to whole blood at the indicated final concentration. […]

[7] = cangrelor 1 μM combined with ADP 10 μM

## heparin
Pooled normal plasma
  minimum Heparin dose needed to reach abnormal clot formation: 0.8 U/mL

## CC(C)Cc1ccc(C(C)C(=O)O)cc1 (centres unmarked) [ibuprofen]
[1]; PRP from subject on 800 mg ibuprofen
  aggregation in response to arachidonic acid: lack of aggregation
Platelet rich plasma [2]; addition of ADP
  occlusion of PRP from ibuprofen patient: abolished occlusion
Platelet rich plasma [2]; subject on 800 mg ibuprofen
  occlusion of PRP from ibuprofen patient: demonstrated occlusion

## COC(=O)[C@H](c1ccccc1Cl)N1CCc2sccc2C1 [clopidogrel]
Platelet function
  time until platelet function is returned after stopping infusion: approximately 1 hour

## CCCSc1nc(N[C@@H]2C[C@H]2c2ccc(F)c(F)c2)c2nnn([C@@H]3C[C@H](OCCO)[C@@H](O)[C@H]3O)c2n1 [ticagrelor]
Platelet rich plasma [3]
  occlusion time of ADP stimulated PRP: 28.0 ± 3.0 min
Platelet function
  time until platelet function can return after the last dosage: approximately 72 hours

## CC(=O)Oc1ccccc1C(=O)O [aspirin, acetylsalicylic acid]
[1]; AA 500 ug/mL, aspirin 100-400 μM
  arachidonic acid induced platelet aggregation in PRP: eliminated arachidonic acid induced platelet aggregation entirely
[1]; collagen 10 ug/mL, aspirin 100-400 μM
  collagen stimulated platelet aggregation in PRP: partially inhibited
Whole blood [4]
  platelet binding and aggregation on collagen under shear: largely limited
Thrombin generation
  peak thrombin: about 45 nM
Platelet rich plasma [2]; PRP 30K/μL
  occlusion time of PRP: > 30 min
Platelet rich plasma [2]; ex vivo, subject on 81 mg/day of aspirin
  occlusion of PRP taken from an aspirin patient: failed to occlude
[5]
  peak concentration: 44 µM

## CSCCNc1nc(SCCC(F)(F)F)nc2c1ncn2[C@@H]1O[C@H](COP(=O)(O)OP(=O)(O)C(Cl)(Cl)P(=O)(O)O)[C@@H](O)[C@H]1O [cangrelor]
[1]; 10 μM ADP, cangrelor 0.5 μM-3.5 μM
  ADP-induced platelet aggregation in PRP: complete inhibition
Platelet rich plasma [3]; 100 ng/mL cangrelor and ADP
  occlusion time of PRP: 26 min
Platelet rich plasma [3]
  occlusion time of ADP stimulated PRP: 28.0 ± 3.0 min
Platelet rich plasma [3]; [7]
  area under the curve (AUC) of PRP: dropped close to zero
  platelet adhesion and occlusion of PRP: essentially eliminated; also recorded: inhibited occlusion essentially completely
Platelet rich plasma [3]; cangrelor alone 1 μM
  area under the curve (AUC) of PRP: little effect
  occlusion / occlusion time of PRP: did not exhibit inhibition; also recorded: little effect

## CCCCS(=O)(=O)N[C@@H](Cc1ccc(OCCCCC2CCNCC2)cc1)C(=O)O [tirofiban]
Platelet rich plasma [2]; 100 ng/mL tirofiban
  occlusion time of PRP: no occlusion

## N=C(N)NCCCC[C@@H]1NC(=O)CCSSC[C@@H](C(N)=O)NC(=O)[C@@H]2CCCN2C(=O)[C@H](Cc2c[nH]c3ccccc23)NC(=O)[C@H](CC(=O)O)NC(=O)CNC1=O [eptifibatide] ([Mpa][hArg]GDWPC-NH2; disulfide 1-7)
[1]; collagen 10 μg/mL, all eptifibatide concentrations tested
  collagen-induced platelet aggregation in PRP: completely inhibited
Whole blood [6]
  occlusion time of whole blood: 16 min
Platelet rich plasma [2]; 9 μM eptifibatide
  occlusion time of PRP: over 30 minutes
Platelet function
  time for bleeding time to return to normal after drug stoppage: ≤ 1 h
